Data taken from US8450313B2, “2,3-diaryl- or heteroaryl-substituted 1,1,1-trifluoro-2-hydroxypropyl compounds” (Hoffmann-La Roche Inc., priority 2009, dated 2013).

Target: T1, full length human recombinant glucocorticoid receptor (Homo sapiens, UniProt P04150)
T1 construct: It contains some partially purified full length human recombinant glucocorticoid receptor; purchased Panvera/Invitrogen PV4302
T1 sequence (P04150 1-777): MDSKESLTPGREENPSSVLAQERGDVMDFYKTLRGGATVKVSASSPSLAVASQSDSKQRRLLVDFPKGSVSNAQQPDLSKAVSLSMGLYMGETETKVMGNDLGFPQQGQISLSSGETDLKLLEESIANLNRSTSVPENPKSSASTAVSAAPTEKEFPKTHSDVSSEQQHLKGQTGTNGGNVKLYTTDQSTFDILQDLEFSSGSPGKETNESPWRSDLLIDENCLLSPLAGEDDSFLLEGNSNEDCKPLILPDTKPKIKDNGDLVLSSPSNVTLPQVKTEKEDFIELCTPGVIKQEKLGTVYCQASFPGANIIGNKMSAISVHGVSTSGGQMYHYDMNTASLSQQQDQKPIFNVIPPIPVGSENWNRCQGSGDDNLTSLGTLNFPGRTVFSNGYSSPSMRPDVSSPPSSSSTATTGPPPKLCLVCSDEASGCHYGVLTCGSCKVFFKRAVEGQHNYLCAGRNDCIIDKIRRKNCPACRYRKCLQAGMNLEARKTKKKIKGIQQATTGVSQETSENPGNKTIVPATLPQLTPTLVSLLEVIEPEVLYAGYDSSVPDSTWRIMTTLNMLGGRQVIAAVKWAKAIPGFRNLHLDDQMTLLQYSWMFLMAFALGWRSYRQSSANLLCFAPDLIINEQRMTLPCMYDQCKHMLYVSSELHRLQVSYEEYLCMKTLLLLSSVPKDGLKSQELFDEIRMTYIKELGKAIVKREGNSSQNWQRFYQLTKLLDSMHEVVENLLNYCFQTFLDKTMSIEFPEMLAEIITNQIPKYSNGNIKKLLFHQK
Test: Glucocorticoid Receptor Binding Assay (Glucocorticoid Receptor Competitor Assay far red kit, fluorescence polarization)
Conditions: competition with fluorescent GR ligand Fluormone GS Far Red, 3 hours at 22° C., pH 7.4; Ki calculated from IC50 by Cheng-Prusoff
Experimental: Glucocorticoid Receptor Binding Assay
The ability of the substances to bind to the glucocorticoid receptor was determined with the help of a commercial Glucocorticoid Receptor Competitor Assay far red kit provided by Panvera/Invitrogen (PV4302). This kit is used as provided by the supplier. It contains some partially purified full length human recombinant glucocorticoid receptor, a coactivator related GR stabilizing peptide, a tight-binding fluorescent GR ligand Fluormone™ GS Far Red as labeled tracer and a screening buffer. All reagents are prepared and the assay is run according to the recommendations of the kit manufacturer.
Briefly, the GR stabilizing peptide and the human recombinant glucocorticoid receptor are both diluted with the screening buffer (pH 7.4) and are gently mixed (no vortexing) just before the assay and kept on ice until use. The fluorescent-labeled ligand is also diluted with the screening buffer just before the assay and kept on ice until use. The substances to test are pre-diluted in pure DMSO then some water is added to get an intermediate 4.2% DMSO stock solution. Ten microliter of the intermediate stock solution is gently mixed with 5 μA of diluted fluorescent-labeled ligand and 5 μl of diluted human recombinant glucocorticoid receptor in a 384-well plate (low volume, ultraclear, glass plate from Greiner ref 788896). The plate is centrifuged, sealed and incubated for 3 hours at 22° C. in the dark. The polarized fluorescence is measured with a Zeiss-HTS reader or any equivalent equipment (610-660 nm).
All compounds were tested to determine IC50 in a serial dilution experiment. The concentration at which 50% inhibition of the fluorescent GR ligand Fluormone™ GS Far Red is obtained (the IC50) is determined after fitting with a sigmoidal dose-response model of a plot of the logarithm of the concentration versus percent inhibition measured for the different concentrations. Ki's were calculated from IC50 based on Cheng-Prusoff equation (Cheng, Y, Prusoff, W H (1973) Biochem Pharmacol 22, 3099-3108): Ki=IC50/[1+D/Kd] wherein D is the concentration of the fluorescent ligand and Kd is the binding constant for the fluorescent ligand binding to the receptor under the conditions used in the competition experiment.

Structure (SMILES)	Ki
C[C@H](c1ccc(-c2ccc(C(=O)O)cc2Cl)cc1Cl)[C@@](O)(c1ccc2c(c1)n(C)c(=O)n2C)C(F)(F)F (stereo in doubt) [Example 81, 2,3′-Dichloro-4′-[2-(1,3-dimethyl-2-oxo-2,3-dihydro-1H-benzoimidazol-5-yl)-3,3,3-trifluoro-2-hydroxy-1-methyl-propyl]-biphenyl-4-carboxylic acid]	1.4 nM
CCOC(=O)c1cccc(-c2ccc([C@@H](C)[C@@](O)(c3ccc4oc(=O)n(C)c4c3)C(F)(F)F)c(Cl)c2)n1 (relative stereo) [Example 188, 6-{3-Chloro-4-[3,3,3-trifluoro-2-hydroxy-1-methyl-2-(3-methyl-2-oxo-2,3-dihydro-benzooxazol-5-yl)-propyl]-phenyl}-pyridine-2-carboxylic acid ethyl ester]	2.2 nM
C[C@H](c1ccc(-c2ccnnc2)cc1Cl)[C@@](O)(c1ccc2oc(=O)n(C)c2c1)C(F)(F)F (stereo in doubt) [Example 195, 5-[2-(2-Chloro-4-pyridazin-4-yl-phenyl)-1-hydroxy-1-trifluoromethyl-propyl]-3-methyl-3H-benzooxazol-2-one]	0.8 nM
COc1cc(Oc2ccc([C@@H](C)[C@@](O)(c3ccc4c(c3)n(C)c(=O)n4C)C(F)(F)F)c(Cl)c2)ccc1C(=O)O (relative stereo) [Example 97, 4-{3-Chloro-4-[2-(1,3-dimethyl-2-oxo-2,3-dihydro-1H-benzoimidazol-5-yl)-3,3,3-trifluoro-2-hydroxy-1-methyl-propyl]-phenoxy}-2-methoxy-benzoic acid]	5 nM
CCOC(=O)C(C)(C)Oc1ccc([C@@H](C)[C@@](O)(c2ccc3oc(=O)n(C)c3c2)C(F)(F)F)c(Cl)c1 (stereo in doubt) [Example 229, 2-{3-Chloro-4-[3,3,3-trifluoro-2-hydroxy-1-methyl-2-(3-methyl-2-oxo-2,3-dihydro-benzooxazol-5-yl)-propyl]-phenoxy}-2-methyl-propionic acid ethyl ester]	3.9 nM
C[C@@H](c1ccc(-c2ccccc2C(=O)O)cc1Cl)[C@](O)(c1ccc2c(c1)N(C)C(=O)CO2)C(F)(F)F (relative stereo) [Example 24, 3′-Chloro-4′-[3,3,3-trifluoro-2-hydroxy-1-methyl-2-(4-methyl-3-oxo-3,4-dihydro-2H-benzo[1,4]oxazin-6-yl)-propyl]-biphenyl-2-carboxylic acid]	19.6 nM
C[C@@H](c1ccc(Oc2ccc(CC(=O)O)cc2)cc1Cl)[C@](O)(c1ccc2c(c1)N(C)C(=O)CO2)C(F)(F)F (relative stereo) [Example 44, (4-{3-Chloro-4-[3,3,3-trifluoro-2-hydroxy-1-methyl-2-(4-methyl-3-oxo-3,4-dihydro-2H-benzo[1,4]oxazin-6-yl)-propyl]-phenoxy}-phenyl)-acetic acid]	3.2 nM
C[C@H](c1ccc(Oc2ccc(C(=O)O)cc2)cc1Cl)[C@@](O)(c1ccc2c(c1)n(C)c(=O)n2C)C(F)(F)F (relative stereo) [Example 98, 4-{3-Chloro-4-[2-(1,3-dimethyl-2-oxo-2,3-dihydro-1H-benzoimidazol-5-yl)-3,3,3-trifluoro-2-hydroxy-1-methyl-propyl]-phenoxy}-benzoic acid]	1.6 nM
C[C@H](c1ccc(Oc2ccc(F)c(C(=O)O)c2)cc1Cl)[C@@](O)(c1ccc2c(c1)N(C)C(=O)CO2)C(F)(F)F (racemic) [Example 56, 5-{3-Chloro-4-[3,3,3-trifluoro-2-hydroxy-1-methyl-2-(4-methyl-3-oxo-3,4-dihydro-2H-benzo[1,4]oxazin-6-yl)-propyl]-phenoxy}-2-fluoro-benzoic acid]	0.3 nM
Cc1cc([C@@](O)([C@@H](C)c2ccc(Oc3ccc(C(=O)O)cn3)cc2Cl)C(F)(F)F)cc(C)c1C#N (stereo in doubt) [Example 148, 6-{3-Chloro-4-[2-(4-cyano-3,5-dimethyl-phenyl)-3,3,3-trifluoro-2-hydroxy-1-methyl-propyl]-phenoxy}-nicotinic acid]	1.6 nM
C[C@@H](c1ccc(Oc2ncc(C(=O)O)cc2Cl)cc1Cl)[C@](O)(c1ccc2c(c1)N(C)C(=O)CO2)C(F)(F)F [Example 224, 5-Chloro-6-{3-chloro-4-[(1S,2S)-3,3,3-trifluoro-2-hydroxy-1-methyl-2-(4-methyl-3-oxo-3,4-dihydro-2H-benzo[1,4]oxazin-6-yl)-propyl]-phenoxy}-nicotinic acid]	0.8 nM

Results, then the compound that gave them:

Ki	Structure (SMILES)
6.6 nM	C[C@@H](c1ccc(-c2ccc(CC(=O)O)cc2)cc1Cl)[C@](O)(c1ccc2c(c1)N(C)C(=O)CO2)C(F)(F)F (relative stereo) [Example 37, {3′-Chloro-4′-[3,3,3-trifluoro-2-hydroxy-1-methyl-2-(4-methyl-3-oxo-3,4-dihydro-2H-benzo[1,4]oxazin-6-yl)-propyl]-biphenyl-4-yl}-acetic acid]
11.9 nM	C[C@H](c1ccc(-c2ccc(C(=O)O)nc2)cc1Cl)[C@@](O)(c1ccc2c(c1)n(C)c(=O)n2C)C(F)(F)F (relative stereo) [Example 84, 5-{3-Chloro-4-[2-(1,3-dimethyl-2-oxo-2,3-dihydro-1H-benzoimidazol-5-yl)-3,3,3-trifluoro-2-hydroxy-1-methyl-propyl]-phenyl}-pyridine-2-carboxylic acid]
6.6 nM	C[C@H](c1ccc(-c2ccc(C(=O)O)nc2)cc1Cl)[C@@](O)(c1ccc2oc(=O)n(C)c2c1)C(F)(F)F (relative stereo) [Example 189, 5-{3-Chloro-4-[3,3,3-trifluoro-2-hydroxy-1-methyl-2-(3-methyl-2-oxo-2,3-dihydro-benzooxazol-5-yl)-propyl]-phenyl}-pyridine-2-carboxylic acid]
13.6 nM	COc1cc(-c2ccc([C@@H](C)[C@@](O)(c3ccc4c(c3)n(C)c(=O)n4C)C(F)(F)F)c(Cl)c2)ccc1C(=O)O (stereo in doubt) [Example 80, 3′-Chloro-4′-[2-(1,3-dimethyl-2-oxo-2,3-dihydro-1H-benzoimidazol-5-yl)-3,3,3-trifluoro-2-hydroxy-1-methyl-propyl]-3-methoxy-biphenyl-4-carboxylic acid]
46.2 nM	C[C@H](c1ccc(-c2ccc(C(=O)O)c(F)c2)cc1Cl)[C@@](O)(c1ccc(C#N)cc1)C(F)(F)F (relative stereo) [Example 152, 3′-Chloro-4′-[2-(4-cyano-phenyl)-3,3,3-trifluoro-2-hydroxy-1-methyl-propyl]-3-fluoro-biphenyl-4-carboxylic acid]
1 nM	C[C@H](c1ccc(-c2ccc(Cl)c(C(=O)O)c2)cc1Cl)[C@@](O)(c1ccc2c(c1)n(C)c(=O)n2C)C(F)(F)F (stereo in doubt) [Example 79, 4,3′-Dichloro-4′-[2-(1,3-dimethyl-2-oxo-2,3-dihydro-1H-benzoimidazol-5-yl)-3,3,3-trifluoro-2-hydroxy-1-methyl-propyl]-biphenyl-3-carboxylic acid]
1.7 nM	C[C@H](c1ccc(-c2ccc(F)c(C(=O)O)c2)cc1Cl)[C@@](O)(c1ccc2c(c1)n(C)c(=O)n2C)C(F)(F)F (stereo in doubt) [Example 74, 3′-Chloro-4′-[2-(1,3-dimethyl-2-oxo-2,3-dihydro-1H-benzoimidazol-5-yl)-3,3,3-trifluoro-2-hydroxy-1-methyl-propyl]-4-fluoro-biphenyl-3-carboxylic acid]
222 nM	C[C@H](c1ccc(-c2ccc(C(=O)O)c(F)c2)cc1Cl)[C@@](O)(c1ccc2c(c1)NC(=O)CO2)C(F)(F)F (relative stereo) [Example 72, 3′-Chloro-3-fluoro-4′-[3,3,3-trifluoro-2-hydroxy-1-methyl-2-(3-oxo-3,4-dihydro-2H-benzo[1,4]oxazin-6-yl)-propyl]-biphenyl-4-carboxylic acid]
